Data published in US6180599A, “Pharmaceutical composition, containing medium-chain fatty acids as active ingredients, for dental caries and periodontal disease” (priority 1997, dated 2001).

Key:
Lactobacillus casei = test: Extracellular polysaccharide synthesis in plaque bacteria separated from human oral cavities; type: cell-based; details: 1 mM
Procedure: (§1) In order to identify the effect by which medium-chain fatty acids inhibit plaque matrix formation, inhibitory effect and concentration of extracellular polysaccharide synthesis were determined in seven kinds of standard cariogenic plaque bacteria. Also, the inhibitory effect of extracellular polysaccharide synthesis for 20 kinds of cariogenic plaque bacteria, separated from the human oral cavity, was measured. Liquid culture media used were: Todd-Hewitt broth of Streptococcus, Lactobacilli MRS broth of Lactobacillus and Brain Heart Infusion broth of Actinomyces. 0.1 ml of bacterial (or cell) suspension (OD600 =0.5) of each bacteria was inoculated to 5.9 ml of culture media containing 1 mM of medium-chain fatty acids and 2% of glucose, and was cultured for 24^~ 48 hours in 10% CO2 incubator. After culturing, the resultant was centrifuged to precipitate at 5,000×g for 15 minutes, then soluble extracellular polysaccharide was separated and purified from the supernatant and insoluble extracellular polysaccharide from the cell pellet, and then these were quantified. So the experimental results that represent inhibitory effect of medium-chain fatty acids upon extracellular polysaccharide synthesis, are shown in table 1, 2, 3 and 4.

Streptococcus mutans = test: as above; type: cell-based; details: 1 mM
Procedure: as §1

Streptococcus sobrinus = test: as above; type: cell-based; details: isolate XX, 1 mM
Procedure: as §1

[1] = tested on: cariogenic plaque bacteria separated from human oral cavities; test: Extracellular polysaccharide synthesis, 20 kinds of bacteria separated from human oral cavities (summary); type: cell-based; details: 1 mM
Procedure: as §1

dental caries = test: Inhibitory effect on the occurrence of dental caries in rats; type: in vivo, Sprague-Dawley rats; details: for Linear unit for fissure-region dental caries, Dm: dentine moderate; for Linear unit for fissure-region dental caries, Dm / Linear unit for fissure-region dental caries, Ds / Linear unit for fissure-region dental caries, E: 50 mM in feed, 120 days; for Linear unit for fissure-region dental caries, Ds: dentine slight; for Linear unit for fissure-region dental caries, E: enamel only
Procedure: This experiment was carried out utilizing a dental caries experiment model in rats of Navia (1977) as followings.
Experimental animals were 48 (male: 24, female: 24) Sprague-Dawley rats, four-weeks old and of […] average body weight. These animals are equally divided into three groups according to sex and body weight at the early stage, and all these animals have clinically healthy teeth.
Experimental animals are divided into 3 groups according to diet, which are a control group of normal feed, a group of dental caries-induced feed and a experimental group of sodium laurate-added feed. Normal feed is solid feed for rodents (SAMYANG Co., Korea), caries-induced feed is prepared by mixing 40% sugar, 32% powdered milk, 21% flour, 5% yeast, 2% anchovy, 0.01% vitamin B and 0.01% vitamin C. Sodium laurate-added feed was prepared by adding 50 mM of sodium laurate to caries-induced feed. All the experimental animals were allowed water ad libitum.
One hundred twenty days later, all experimental animals were euthanized. The maxilla and mandible were separated, and fixed in 10% neutral formalin. A dental caries index was measured by the method originated by Keyes and modified by Larson (1981). Food debris remaining in the fissure of molar of maxilla and mandible was removed by a Barbed Broach tool used in clinical dentistry, then the molar teeth of maxilla and mandible were cut so that they could include the first, second, and third molar by using an Exact cutting system (Exact-Apprateb, Hamburg, Germany) equipped with a diamond-treated saw. Cutting of the molar teeth of both maxilla and mandible was carried out by a handpiece equipped with cutting disc (thickness, 0.004 inch; diameter, 0.75 inch). The direction of the cutting was from the mesial side of the first molar to the distal side of the third molar. The samples which were cut were stained in order to measure the dental caries-index easily. Staining was carried out as follows; samples were cultured with 0.02% solution of ammonium prupurate (murexide) for 12 hours, washed with flowing water for 10 minutes, then treated with 0.2% of ammoniacal silver nitrate for 30 seconds and washed with flowing water for 2 minutes before measurement. The degree of the affection of dental caries at the cut surface is classified into enamel only (E) when dental caries is affected only to enamel; and into slight (Ds), moderate (Dm) and extensive (Dx) according to the extent of affection when dental caries is affected further into the dentine. The total sum was calculated by adding up marks within the range of linear units administered to each tooth according to the modified method of Larson (1981).
Statistical analysis of each group concerning the linear unit, showing the extent of dental caries, was carried out using the Mann-Whitney test. Statistical analysis according to the feed and the region where the teeth were placed (maxilla or mandible) was carried out by the Kruskal-Wallis test. If more than 2/3 of the dental crown was lost due to serious abrasion and if it was impossible to observe in the process of treating samples, these teeth were excluded in the statistics.

CCCCCCCCCCCC(=O)[O-].[Na+] [C12, sodium laurate]
Inhibitory rate (Lactobacillus casei; isolate I): 76%
Soluble extracellular polysaccharide (Lactobacillus casei; isolate I, control 105.1 ± 7.2): 25.1 ± 1.7 µg/mL
Inhibitory rate (Lactobacillus casei; isolate II): 71%
Soluble extracellular polysaccharide (Lactobacillus casei; isolate II, control 121.4 ± 27.1): 35.0 ± 2.9 µg/mL
Inhibitory rate (Lactobacillus casei; isolate III): 75%
Soluble extracellular polysaccharide (Lactobacillus casei; isolate III, control 140.4 ± 4.9): 34.7 ± 0.9 µg/mL
Inhibitory rate (Lactobacillus casei; isolate IV): 74%
Soluble extracellular polysaccharide (Lactobacillus casei; isolate IV, control 151.4 ± 7.6): 38.8 ± 4.1 µg/mL
Inhibitory rate (Lactobacillus casei; isolate IX): 79%
Soluble extracellular polysaccharide (Lactobacillus casei; isolate IX, control 214.6 ± 18.8): 46.1 ± 3.0 µg/mL
Inhibitory rate (Lactobacillus casei; isolate V): 73%
Soluble extracellular polysaccharide (Lactobacillus casei; isolate V, control 137.4 ± 21.8): 36.6 ± 4.3 µg/mL
Inhibitory rate (Lactobacillus casei; isolate VI): 74%
Soluble extracellular polysaccharide (Lactobacillus casei; isolate VI, control 184.6 ± 6.5): 48.5 ± 2.7 µg/mL
Inhibitory rate (Lactobacillus casei; isolate VII): 70%
Soluble extracellular polysaccharide (Lactobacillus casei; isolate VII, control 149.9 ± 16.8): 44.7 ± 3.1 µg/mL
Inhibitory rate (Lactobacillus casei; isolate VIII): 72%
Soluble extracellular polysaccharide (Lactobacillus casei; isolate VIII, control 221.6 ± 20.1): 62.6 ± 3.4 µg/mL
Inhibitory rate (Lactobacillus casei; isolate X): 72%
Soluble extracellular polysaccharide (Lactobacillus casei; isolate X, control 201.7 ± 36.1): 56.3 ± 8.2 µg/mL
Inhibitory rate (Streptococcus mutans; isolate XI): 70%
Soluble extracellular polysaccharide (Streptococcus mutans; isolate XI, control 95.2 ± 8.3): 28.6 ± 3.5 µg/mL
Inhibitory rate (Streptococcus mutans; isolate XII): 58%
Soluble extracellular polysaccharide (Streptococcus mutans; isolate XII, control 84.2 ± 8.6): 35.2 ± 5.0 µg/mL
Inhibitory rate (Streptococcus mutans; isolate XIII): 69%
Soluble extracellular polysaccharide (Streptococcus mutans; isolate XIII, control 90.5 ± 8.3): 27.7 ± 3.3 µg/mL
Inhibitory rate (Streptococcus mutans; isolate XIV): 53%
Soluble extracellular polysaccharide (Streptococcus mutans; isolate XIV, control 90.5 ± 2.9): 42.6 ± 1.0 µg/mL
Inhibitory rate (Streptococcus mutans; isolate XIX): 70%
Soluble extracellular polysaccharide (Streptococcus mutans; isolate XIX, control 113.7 ± 6.8): 34.3 ± 3.3 µg/mL
Inhibitory rate (Streptococcus mutans; isolate XV): 62%
Soluble extracellular polysaccharide (Streptococcus mutans; isolate XV, control 117.9 ± 4.6): 44.5 ± 1.7 µg/mL
Inhibitory rate (Streptococcus mutans; isolate XVI): 66%
Soluble extracellular polysaccharide (Streptococcus mutans; isolate XVI, control 143.2 ± 11.1): 48.2 ± 4.5 µg/mL
Inhibitory rate (Streptococcus mutans; isolate XVII): 67%
Soluble extracellular polysaccharide (Streptococcus mutans; isolate XVII, control 107.8 ± 17.0): 35.4 ± 2.1 µg/mL
Inhibitory rate (Streptococcus mutans; isolate XVIII): 59%
Soluble extracellular polysaccharide (Streptococcus mutans; isolate XVIII, control 98.5 ± 9.0): 40.5 ± 1.7 µg/mL
Inhibitory rate (Streptococcus sobrinus): 79%
Soluble extracellular polysaccharide (Streptococcus sobrinus; control 116.0 ± 17.2): 24.0 ± 1.5 µg/mL
inhibition of soluble extracellular polysaccharide synthesis (in words) [1]: noticeably inhibits soluble extracellular polysaccharide synthesis
Linear unit, Total (average ± standard deviation) (dental caries; 164 teeth, P < 0.01 vs caries-inducing feed (3.01 ± 2.35), normal feed 2.34 ± 1.37): 1.71 ± 1.26
Linear unit for fissure-region dental caries, Dm (dental caries; Mandible, 1st molar): 0
Linear unit for fissure-region dental caries, Ds (dental caries; Mandible, 1st molar): 7
Linear unit for fissure-region dental caries, E (dental caries; Mandible, 1st molar): 72
Linear unit for fissure-region dental caries, Dm (dental caries; Mandible, 2nd molar): 0
Linear unit for fissure-region dental caries, Ds (dental caries; Mandible, 2nd molar): 10
Linear unit for fissure-region dental caries, E (dental caries; Mandible, 2nd molar): 55
Linear unit for fissure-region dental caries, Dm (dental caries; Mandible, 3rd molar): 0
Linear unit for fissure-region dental caries, Ds (dental caries; Mandible, 3rd molar): 0
Linear unit for fissure-region dental caries, E (dental caries; Mandible, 3rd molar): 16
Linear unit for fissure-region dental caries, Dm (dental caries; Maxilla, 1st molar): 0
Linear unit for fissure-region dental caries, Ds (dental caries; Maxilla, 1st molar): 1
Linear unit for fissure-region dental caries, E (dental caries; Maxilla, 1st molar): 61
Linear unit for fissure-region dental caries, Dm (dental caries; Maxilla, 2nd molar): 0
Linear unit for fissure-region dental caries, Ds (dental caries; Maxilla, 2nd molar): 0
Linear unit for fissure-region dental caries, E (dental caries; Maxilla, 2nd molar): 41
Linear unit for fissure-region dental caries, Dm (dental caries; Maxilla, 3rd molar): 0
Linear unit for fissure-region dental caries, Ds (dental caries; Maxilla, 3rd molar): 0
Linear unit for fissure-region dental caries, E (dental caries; Maxilla, 3rd molar): 17
dental caries in experimental animals (in words) (dental caries; sodium laurate-added feed): noticeably reduced dental caries in experimental animals
